What follows are compounds tested on tumor endothelial cells (LL/2 lung cancer tumor) (assay: Lung LL2 ex vivo model of tumor angiogenesis). Settings: Lung LL2 ex vivo; Conc. 20 μm; 48 hrs.
Format: cell-based, mouse
Description: This example describes a procedure to prepare a primary tumor angiogenesis model for assessing the efficacy of anti-cancer candidate agents.
1. The day before the experiment, spray all necessary tools with 70% ethanol and sterilize them under UV light overnight, including blade, dissecting and micro-dissecting scissors and […]. Place 24-well dishes at 4° C. to pre-chill plates and thaw Matrigel 24 hours before tumor dissection.
2. Spray 70% ethanol on working bench. Prepare two sterile petri dishes with 10 mL sterile PBS. Steps 3 and 4 are for mouse tumor models. For fresh human tumor, directly go to step 5.
3. Euthanize the tumor-bearing mice. Spray 70% ethanol on the mouse and remove the tumor using sterilized dissecting tools (avoid the fur). Rinse the tumor in petri dish with sterile PBS to remove ethanol and fur. Transfer the tumor to a new petri dish with PBS for dissection. Place the dish on ice.
4. Using pre-chilled sterile pipet tips to seed regular Matrigel in 24 well plates on ice. Matrigel (30 μL) is dropped in the middle of each well without touching the edge of the well (avoid introducing bubbles if possible).
5. Cut the tumor in halves using the sterile blade. Identify and isolate healthy tumor tissue that is not necrotic and is within the tumor capsule. Cut the healthy tumor tissue into small pieces. For instance, a suitable size for the tumor tissue is 0.5 mm (H)×0.5 mm (L)×0.3 mm (D) with a total volume of 0.075 mm^3.
6. Gently transfer and embed each tumor piece in the Matrigel drop in the 24-well plate. Place the embedded piece in the bottom and middle of each Matrigel drop. Keep the plate on ice all the time.
7. After seeding the tumor pieces, plates are incubated in a 37° C. cell culture incubator without medium for 10 minutes in order for the Matrigel to solidify.
8. Endothelial Growth Medium (0.5 mL) is added to each well and incubated at 37° C. with 5% CO2. Wait until the new endothelial cells have grown out of the tumor or are larger than 3 mm in diameter until treatment. This usually takes 4 days for the LL2 Lewis lung cancer model and 7 days for the CT26 colon cancer model. For human tumor models, the growth time is typically 2-3 weeks, depending on the tumor type. Media is changed every 4 days during prolonged culture. Typically, when the tumor tissue grows to 2 mm in diameter, it is good for drug testing. A size of about 3 mm in diameter can make visualization easier.
9. When the assay is ready to be analyzed for cell death (e.g., 48 hours after drug addition), prepare the dye mixture by mixing 6 μL of green dye to stain live cells (5 mg/mL Fluorescein diacetate or FDA in DMSO) with 30 μL of red dye (2.5 mg/mL Propidium iodide or PI in PBS) to stain dead cells in an Eppendorf tube. The FDA dye needs to be stored frozen in a −20° C. freezer because it has a labile ester bond.
10. Add 1 μL of the dye mixture to each well of the 24-well dish. It is usually performed one 24-well dish at a time given the amount of time needed to take pictures (the green dye is not as stable in the cells in the long term).
11. Gently rock the dish a few times to mix the dye with the media in the wells and incubate the dish at 37° C. for 10 min (too long incubation can make the green signal too intense).
12. Wash each well with 0.5 mL of sterile PBS and then add 0.5 mL of phenol red free SFM to each well. Alternatively 0.5 mL of regular Endothelial Cell Growth Media can be added to each well if this well needs to be continuously maintained after the experiment.
13. Look through all wells on an inverted microscope using the 2× objective lens to observe morphological changes.
14. Taking pictures in the red and green channels would allow not only the recording of the result but also more accurate quantitation of the result. To take pictures for all the wells, first pick a well that has robust red and green signals. […]

In the case of “3-((4-(heptyloxy)phenyl)sulfonyl)-4-(4- (4-(2-mPEGoxyethyl)piperazin-1- yl)piperidin-1-yl)-6- (methylsulfinyl)quinoline [compound 280]”, the “48 hrs (morphology observations after 48 hours)” value is reported as “*** (100% of endothelial cells vesicularize in cell shape)”.
With “4-([1,4′:1′,4″-terpiperidin]-1″-yl)-6- (methyl(λ^1-oxidanyl)-λ^3-sulfanyl)-3-((4- (tetradecyloxy)phenyl)sulfonyl)quinoline [compound 347]” the “48 hrs (morphology observations after 48 hours)” value was “*** (100% of endothelial cells vesicularize in cell shape)”.

Same assay, conditions: Lung LL2 ex vivo; Conc. 20 μm; drug treatment two days

First: 3-((4-(heptyloxy)phenyl)sulfonyl)-4-(4- (4-(2-mPEGoxyethyl)piperazin-1- yl)piperidin-1-yl)-6- (methylsulfinyl)quinoline [compound 280]
Second: 4-([1,4′:1′,4″-terpiperidin]-1″-yl)-6- (methyl(λ^1-oxidanyl)-λ^3-sulfanyl)-3-((4- (tetradecyloxy)phenyl)sulfonyl)quinoline [compound 347]
The Cell death of the first is higher: 100% for the first, 30% for the second.

`COc1ccc(S(=O)(=O)c2cnc3ccc(OC(F)(F)F)cc3c2N2CCC(N3CCC(O)CC3)CC2)cc1` [compound 113, 1′-(3-((4-methoxyphenyl)sulfonyl)-6-(trifluoromethoxy)quinolin-4-yl)-[1,4′-bipiperidin]-4-ol] and `COc1ccc(S(=O)(=O)c2cnc3ccc(CC#N)cc3c2N2CCC(N3CCCCC3)CC2)cc1` [compound 115, 2-(4-([1,4′-bipiperidin]-1′-yl)-3-((4-methoxyphenyl)sulfonyl)quinolin-6-yl)acetonitrile] are the same in Cell death: 10% for the first, 10% for the second.

First: O=S(=O)(c1ccc(OC(F)(F)F)cc1)c1cnc2ccc(OC(F)(F)F)cc2c1N1CCC(N2CCCCC2)CC1 [compound 120, 4-([1,4′-bipiperidin]-1′-yl)-6-(trifluoromethoxy)-3-((4-(trifluoromethoxy)phenyl)sulfonyl)quinoline]
Second: CCc1ccc(S(=O)(=O)c2cnc3ccc(OC(F)(F)F)cc3c2-n2cnnn2)cc1 [compound 125, 3-((4-ethylphenyl)sulfonyl)-4-(1H-tetrazol-1-yl)-6-(trifluoromethoxy)quinoline]
The Cell death of the first is lower: 5% for the first, 10% for the second.

Same assay, conditions: Lung LL2 ex vivo; Conc. 40 μm; drug treatment two days

Going from `CCc1ccc(S(=O)(=O)c2cnc3ccc(OC)cc3c2NN2CCN(C)CC2)cc1` [compound 83, 3-((4-ethylphenyl)sulfonyl)-6-methoxy-N-(4-methylpiperazin-1-yl)quinolin-4-amine] to `CNC(=O)c1ccc2ncc(S(=O)(=O)c3ccc(OC)cc3)c(N3CCC(N4CCCCC4)CC3)c2c1` [compound 143, 4-([1,4′-bipiperidin]-1′-yl)-3-((4-methoxyphenyl)sulfonyl)-N-methylquinoline-6-carboxamide], the Cell death rises from 20% to 40%.

Same assay, conditions: Mus musculus, Endothelial cell, 48 h, read-out: Cell death

Going from `COc1ccc(S(=O)(=O)c2cnc3ccc(OC(F)(F)F)cc3c2NCCO)cc1OC` [compound 73, 2-((3-((3,4-dimethoxyphenyl)sulfonyl)-6-(trifluoromethoxy)quinolin-4-yl)amino)ethan-1-ol] to `CCCCOc1ccc(S(=O)(=O)c2cnc3ccc(SC)cc3c2N2CCC(N3CCC(O)CC3)CC2)cc1` [compound 162, 1′-(3-((4-butoxyphenyl)sulfonyl)-6-(methylthio)quinolin-4-yl)-[1,4′-bipiperidin]-4-ol], the cytotoxicity at 40 µM rises from 10% to 70%.

First: CCc1ccc(S(=O)(=O)c2cnc3ccc(OC(F)(F)F)cc3c2N2CCC(N(CC)CC)CC2)cc1 [compound 103, N,N-diethyl-1-(3-((4-ethylphenyl)sulfonyl)-6-(trifluoromethoxy)quinolin-4-yl)piperidin-4-amine]
Second: CCc1ccc(S(=O)(=O)c2cnc3ccc(OC(F)(F)F)cc3c2NN2CCCCC2)cc1 [compound 105, 3-((4-ethylphenyl)sulfonyl)-N-(piperidin-1-yl)-6-(trifluoromethoxy)quinolin-4-amine]
The cytotoxicity at 20 µM of the first is higher: 10% for the first, 0% for the second.

Compared with `CCc1ccc(S(=O)(=O)c2cnc3ccc(OC(F)(F)F)cc3c2NCCCCCO)cc1` [compound 104, 5-((3-((4-ethylphenyl)sulfonyl)-6-(trifluoromethoxy)quinolin-4-yl)amino)pentan-1-ol], `CCc1ccc(S(=O)(=O)c2cnc3ccc(OC(F)(F)F)cc3c2NCCCCO)cc1` [compound 111, 4-((3-((4-ethylphenyl)sulfonyl)-6-(trifluoromethoxy)quinolin-4-yl)amino)butan-1-ol] is higher in cytotoxicity at 20 µM: 20% for the first, 30% for the second.

Going from `CCc1ccc(S(=O)(=O)c2cnc3ccc(OC(F)(F)F)cc3c2NCc2ccncc2)cc1` [compound 106, 3-((4-ethylphenyl)sulfonyl)-N-(pyridin-4-ylmethyl)-6-(trifluoromethoxy)quinolin-4-amine] to `CCc1ccc(S(=O)(=O)c2cnc3ccc(OC(F)(F)F)cc3c2Nc2ccncc2)cc1` [compound 107, 3-((4-ethylphenyl)sulfonyl)-N-(pyridin-4-yl)-6-(trifluoromethoxy)quinolin-4-amine], the cytotoxicity at 20 µM falls from 5% to 0%.

`CCc1ccc(S(=O)(=O)c2cnc3ccc(OC(F)(F)F)cc3c2-n2cccc2)cc1` [compound 108, 3-((4-ethylphenyl)sulfonyl)-4-(1H-pyrrol-1-yl)-6-(trifluoromethoxy)quinoline] and `CCc1ccc(S(=O)(=O)c2cnc3ccc(OC(F)(F)F)cc3c2-n2cccn2)cc1` [compound 109, 3-((4-ethylphenyl)sulfonyl)-4-(1H-pyrazol-1-yl)-6-(trifluoromethoxy)quinoline] are the same in cytotoxicity at 20 µM: 0% for the first, 0% for the second.

Going from `COc1ccc(S(=O)(=O)c2cnc3ccc([N+](=O)[O-])cc3c2N2CCC(N3CCCCC3)CC2)cc1` [compound 114, 4-([1,4′-bipiperidin]-1′-yl)-3-((4-methoxyphenyl)sulfonyl)-6-nitroquinoline] to `CCCCOc1ccc(S(=O)(=O)c2cnc3ccc(S(C)(=O)=O)cc3c2N2CCC(N3CCCCC3)CC2)cc1` [compound 169, 4-([1,4′-bipiperidin]-1′-yl)-3-((4-butoxyphenyl)sulfonyl)-6-(methylsulfonyl)quinoline], the cytotoxicity at 20 µM rises from 5% to 40%.

Compared with `COc1ccc(S(=O)(=O)c2cnc3cc(OC)c(OC)cc3c2N2CCC(N3CCCCC3)CC2)cc1OC` [compound 122, 4-([1,4′-bipiperidin]-1′-yl)-3-((3,4-dimethoxyphenyl)sulfonyl)-6,7-dimethoxyquinoline], `CCCCOc1ccc(S(=O)(=O)c2cnc3ccc([S+](C)[O-])cc3c2N2CCC(N3CCCCC3)CC2)cc1` (centres unmarked) [compound 167, 4-([1,4′-bipiperidin]-1′-yl)-3-((4-butoxyphenyl)sulfonyl)-6-(methylsulfinyl)quinoline] is higher in cytotoxicity at 20 µM: 10% for the first, 40% for the second.

`CCc1ccc(S(=O)(=O)c2cnc3ccc(OC(F)(F)F)cc3c2NN2CCOCC2)cc1` [compound 126, N-(3-((4-ethylphenyl)sulfonyl)-6-(trifluoromethoxy)quinolin-4-yl)morpholin-4-amine] and `CCOC(=O)c1ccc2ncc(S(=O)(=O)c3ccc(CC)cc3)c(-n3nnc4ccccc43)c2c1` [compound 133, ethyl 4-(1H-benzo[d][1,2,3]triazol-1-yl)-3-((4-ethylphenyl)sulfonyl)quinoline-6-carboxylate] are the same in cytotoxicity at 20 µM: 10% for the first, 10% for the second.

Going from `CCOC(=O)c1ccc2ncc(S(=O)(=O)c3ccc(OC)cc3)c(-n3ccnc3)c2c1` [compound 141, ethyl 4-(1H-imidazol-1-yl)-3-((4-methoxyphenyl)sulfonyl)quinoline-6-carboxylate] to `CCCCOc1ccc(S(=O)(=O)c2cnc3ccc(S(C)(=O)=O)cc3c2N2CCC(N3CCC(O)CC3)CC2)cc1` [compound 170, 1′-(3-((4-butoxyphenyl)sulfonyl)-6-(methylsulfonyl)quinolin-4-yl)-[1,4′-bipiperidin]-4-ol], the cytotoxicity at 20 µM falls from 90% to 10%.

With `CCCCOc1ccc(S(=O)(=O)c2cnc3ccc([S+](C)[O-])cc3c2N2CCC(N3CCC(O)CC3)CC2)cc1` (centres unmarked) [compound 168, 1′-(3-((4-butoxyphenyl)sulfonyl)-6-(methylsulfinyl)quinolin-4-yl)-[1,4′-bipiperidin]-4-ol] the cytotoxicity at 20 µM was 10%.

Source: patent publication US11884647B2, “Compounds and methods for targeting pathogenic blood vessels” (THE REGENTS OF THE UNIVERSITY OF CALIFORNIA, priority 2019, dated 2024)
